Results published in BigSolDB 2.1.

Cc1nc2n(c(=O)c1CCN1CCC(c3noc4cc(F)ccc34)CC1)CCCC2
solubility (mole fraction)
Conditions	278.15 K	283.15 K	288.15 K	293.15 K	298.15 K	303.15 K	308.15 K	313.15 K	318.15 K	323.15 K
in acetone	0.00085	0.00095	0.00127	0.00143	0.00175	0.00219	0.00284	0.00336	0.00417	0.00507
in cumene	0.00122	0.00147	0.00207	0.00219	0.0026	0.00309	0.00376	0.00481	0.00552	0.0066
in ethanol	0.00096	0.00108	0.00131	0.00153	0.00201	0.00248	0.0033	0.00415	0.0051	0.00677
in ethyl acetate	0.00116	0.00128	0.00167	0.00185	0.00216	0.00263	0.00331	0.00397	0.00485	0.0058
in isopropanol	0.00036	0.00046	0.0006	0.0007	0.00103	0.00136	0.00203	0.00253	0.0032	0.00447
in methanol	0.00202	0.0023	0.00272	0.00329	0.00396	0.00487	0.00615	0.0077	0.0099	0.0128
in n-butanol	0.00152	0.00173	0.0022	0.00263	0.00347	0.00443	0.00593	0.00753	0.00963	0.0124
in n-propanol	0.00139	0.00155	0.00197	0.00238	0.00305	0.00381	0.00517	0.00651	0.00839	0.0109
in toluene	0.0038	0.00418	0.00521	0.00559	0.00667	0.008	0.00998	0.0117	0.014	0.0167
